{"source": "paper PMC7486443", "about": "“Generation of Phenothiazine with Potent Anti-TLK1 Activity for Prostate Cancer Therapy” (iScience, 2020)", "assay_in_all_cases": "biochemical", "design_in_all_cases": "DiscoverX KINOMEscan scanMAX competition binding panel, single concentration, percent of control; remaining binding: dose or concentration left out as unconfirmed", "conditions_in_all_cases": "KINOMEscan binding, percent of control; read-out: Table S4_SCANMAX REPORT - related to Fig. 1 / Percent Control", "key": {"[1]": {"target": "T1, ABL1(Y253F)-phosphorylated (Homo sapiens, UniProt P00519, Y253F)", "T1 construct": "phosphorylated"}, "ASK2": {"target": "T2, ASK2 (Homo sapiens, UniProt O95382)", "T2 construct": "gene MAP3K6"}, "CDKL3": {"target": "CDKL3 (Homo sapiens, UniProt Q8IVW4)", "sequence (Q8IVW4 whole entry)": "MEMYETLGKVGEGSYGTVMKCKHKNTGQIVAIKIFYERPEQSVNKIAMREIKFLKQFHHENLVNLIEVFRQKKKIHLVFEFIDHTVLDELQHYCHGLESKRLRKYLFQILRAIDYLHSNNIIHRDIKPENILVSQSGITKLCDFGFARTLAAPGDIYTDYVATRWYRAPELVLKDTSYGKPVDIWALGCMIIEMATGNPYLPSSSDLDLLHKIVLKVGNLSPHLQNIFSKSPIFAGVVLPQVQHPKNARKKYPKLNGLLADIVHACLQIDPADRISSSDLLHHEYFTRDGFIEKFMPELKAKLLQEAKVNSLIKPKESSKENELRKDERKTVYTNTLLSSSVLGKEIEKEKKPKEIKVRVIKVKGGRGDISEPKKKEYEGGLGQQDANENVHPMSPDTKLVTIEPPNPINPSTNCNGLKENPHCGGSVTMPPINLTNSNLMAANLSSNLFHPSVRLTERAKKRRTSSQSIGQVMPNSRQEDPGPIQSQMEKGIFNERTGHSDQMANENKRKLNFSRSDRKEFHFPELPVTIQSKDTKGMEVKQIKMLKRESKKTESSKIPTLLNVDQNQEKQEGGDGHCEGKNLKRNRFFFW"}, "CSF1R": {"target": "CSF1R (Homo sapiens, UniProt P07333)", "sequence (P07333 whole entry)": "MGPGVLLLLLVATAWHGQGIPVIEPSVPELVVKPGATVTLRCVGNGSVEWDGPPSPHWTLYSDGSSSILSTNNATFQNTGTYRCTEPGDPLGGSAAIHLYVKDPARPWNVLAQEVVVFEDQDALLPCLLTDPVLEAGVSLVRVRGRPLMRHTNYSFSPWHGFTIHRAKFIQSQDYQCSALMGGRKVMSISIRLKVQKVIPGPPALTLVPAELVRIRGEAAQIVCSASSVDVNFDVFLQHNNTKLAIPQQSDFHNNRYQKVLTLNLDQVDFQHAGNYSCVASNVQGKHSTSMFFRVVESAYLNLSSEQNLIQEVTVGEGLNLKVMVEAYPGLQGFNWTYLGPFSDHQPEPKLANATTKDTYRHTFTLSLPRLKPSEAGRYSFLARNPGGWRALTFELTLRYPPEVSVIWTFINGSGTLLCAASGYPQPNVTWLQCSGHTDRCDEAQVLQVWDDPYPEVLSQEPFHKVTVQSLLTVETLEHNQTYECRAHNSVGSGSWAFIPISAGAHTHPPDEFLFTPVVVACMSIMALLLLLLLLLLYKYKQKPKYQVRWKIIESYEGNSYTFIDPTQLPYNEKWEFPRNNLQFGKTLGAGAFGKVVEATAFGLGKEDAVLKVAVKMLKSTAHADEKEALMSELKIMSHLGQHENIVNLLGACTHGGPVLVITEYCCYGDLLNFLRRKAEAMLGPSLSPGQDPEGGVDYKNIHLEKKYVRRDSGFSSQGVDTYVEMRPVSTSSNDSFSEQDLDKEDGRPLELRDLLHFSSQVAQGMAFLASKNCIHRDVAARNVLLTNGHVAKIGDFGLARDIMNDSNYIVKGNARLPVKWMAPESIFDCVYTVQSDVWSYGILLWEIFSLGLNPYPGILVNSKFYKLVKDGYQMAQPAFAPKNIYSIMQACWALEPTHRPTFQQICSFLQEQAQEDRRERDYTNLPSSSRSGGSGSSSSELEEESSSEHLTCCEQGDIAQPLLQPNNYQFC"}, "EGFR(L858R)": {"target": "EGFR(L858R) (Homo sapiens, UniProt P00533, L858R)", "sequence (P00533 whole entry L858R)": "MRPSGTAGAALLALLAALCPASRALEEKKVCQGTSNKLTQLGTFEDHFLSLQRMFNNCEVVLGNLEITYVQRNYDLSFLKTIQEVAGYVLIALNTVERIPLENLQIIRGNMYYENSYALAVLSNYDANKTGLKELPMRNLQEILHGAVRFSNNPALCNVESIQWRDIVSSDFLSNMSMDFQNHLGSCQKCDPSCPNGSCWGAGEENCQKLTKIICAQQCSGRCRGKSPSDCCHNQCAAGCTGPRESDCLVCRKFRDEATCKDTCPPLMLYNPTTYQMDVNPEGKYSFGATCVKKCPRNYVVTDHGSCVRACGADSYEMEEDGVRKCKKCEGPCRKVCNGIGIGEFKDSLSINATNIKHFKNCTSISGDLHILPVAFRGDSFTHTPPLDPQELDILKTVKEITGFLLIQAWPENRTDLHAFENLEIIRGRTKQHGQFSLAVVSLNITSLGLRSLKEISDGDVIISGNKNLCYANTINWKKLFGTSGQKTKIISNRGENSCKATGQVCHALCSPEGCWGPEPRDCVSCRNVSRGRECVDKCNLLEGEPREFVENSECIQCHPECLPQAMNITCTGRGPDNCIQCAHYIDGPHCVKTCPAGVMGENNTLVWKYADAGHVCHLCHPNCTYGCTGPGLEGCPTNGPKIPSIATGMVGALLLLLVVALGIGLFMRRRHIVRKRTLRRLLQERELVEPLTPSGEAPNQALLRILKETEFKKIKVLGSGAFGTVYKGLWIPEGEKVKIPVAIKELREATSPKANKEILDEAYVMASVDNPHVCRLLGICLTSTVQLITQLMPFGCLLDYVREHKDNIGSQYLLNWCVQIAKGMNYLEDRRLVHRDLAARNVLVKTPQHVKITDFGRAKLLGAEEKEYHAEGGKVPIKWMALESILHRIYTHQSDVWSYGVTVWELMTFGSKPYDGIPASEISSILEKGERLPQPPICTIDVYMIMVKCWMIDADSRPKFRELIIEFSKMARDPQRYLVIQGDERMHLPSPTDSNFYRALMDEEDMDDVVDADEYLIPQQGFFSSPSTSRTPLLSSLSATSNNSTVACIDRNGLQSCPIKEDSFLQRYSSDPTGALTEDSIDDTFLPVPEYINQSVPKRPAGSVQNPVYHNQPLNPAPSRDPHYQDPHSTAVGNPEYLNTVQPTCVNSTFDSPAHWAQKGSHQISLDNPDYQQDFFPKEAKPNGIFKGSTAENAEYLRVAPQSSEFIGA"}, "HUNK": {"target": "HUNK (Homo sapiens, UniProt P57058)", "sequence (P57058 whole entry)": "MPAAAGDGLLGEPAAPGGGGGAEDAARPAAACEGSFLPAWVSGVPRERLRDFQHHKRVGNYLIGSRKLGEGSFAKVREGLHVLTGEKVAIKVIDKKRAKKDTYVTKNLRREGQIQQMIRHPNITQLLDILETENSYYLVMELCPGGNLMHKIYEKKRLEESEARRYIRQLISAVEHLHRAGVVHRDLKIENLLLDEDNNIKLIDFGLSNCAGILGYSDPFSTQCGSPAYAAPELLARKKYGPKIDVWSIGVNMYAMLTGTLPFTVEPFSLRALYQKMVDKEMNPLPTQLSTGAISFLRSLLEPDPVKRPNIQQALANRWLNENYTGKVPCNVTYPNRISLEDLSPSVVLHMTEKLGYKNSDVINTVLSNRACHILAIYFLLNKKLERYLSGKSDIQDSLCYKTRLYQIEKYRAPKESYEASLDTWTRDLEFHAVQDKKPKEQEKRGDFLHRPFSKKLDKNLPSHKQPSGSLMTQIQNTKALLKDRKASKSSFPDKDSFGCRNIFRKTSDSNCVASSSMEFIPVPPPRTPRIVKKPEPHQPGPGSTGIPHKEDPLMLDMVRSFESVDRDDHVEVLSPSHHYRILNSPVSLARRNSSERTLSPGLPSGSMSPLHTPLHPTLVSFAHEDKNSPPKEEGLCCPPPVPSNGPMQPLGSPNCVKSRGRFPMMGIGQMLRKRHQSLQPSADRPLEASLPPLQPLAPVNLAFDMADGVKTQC"}, "IRAK3": {"target": "IRAK3 (Homo sapiens, UniProt Q9Y616)", "sequence (Q9Y616 whole entry)": "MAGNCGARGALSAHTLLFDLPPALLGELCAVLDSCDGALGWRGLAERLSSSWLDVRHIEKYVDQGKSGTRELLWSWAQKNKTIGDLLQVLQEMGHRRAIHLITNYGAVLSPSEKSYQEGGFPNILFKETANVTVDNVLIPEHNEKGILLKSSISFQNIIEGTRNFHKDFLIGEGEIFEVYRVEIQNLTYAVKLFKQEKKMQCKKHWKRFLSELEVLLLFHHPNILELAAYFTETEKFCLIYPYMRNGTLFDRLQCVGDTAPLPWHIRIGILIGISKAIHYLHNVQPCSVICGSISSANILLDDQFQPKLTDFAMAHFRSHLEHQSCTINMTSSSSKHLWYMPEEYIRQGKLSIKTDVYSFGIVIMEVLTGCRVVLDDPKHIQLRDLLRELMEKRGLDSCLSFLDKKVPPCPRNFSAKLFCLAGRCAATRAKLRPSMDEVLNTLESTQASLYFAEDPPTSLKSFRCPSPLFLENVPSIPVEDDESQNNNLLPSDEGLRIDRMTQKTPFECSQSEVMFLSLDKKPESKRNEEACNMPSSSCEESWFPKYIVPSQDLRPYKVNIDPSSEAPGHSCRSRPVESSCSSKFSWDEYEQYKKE"}, "[2]": {"target": "T3, JAK1(JH2domain-pseudokinase) (Homo sapiens, UniProt P23458)", "T3 construct": "JH2domain-pseudokinase"}, "[3]": {"target": "T4, JAK3(JH1domain-catalytic) (Homo sapiens, UniProt P52333)", "T4 construct": "JH1domain-catalytic"}, "MAP3K4": {"target": "MAP3K4 (Homo sapiens, UniProt Q9Y6R4)"}, "PRKD2": {"target": "PRKD2 (Homo sapiens, UniProt Q9BZL6)", "sequence (Q9BZL6 whole entry)": "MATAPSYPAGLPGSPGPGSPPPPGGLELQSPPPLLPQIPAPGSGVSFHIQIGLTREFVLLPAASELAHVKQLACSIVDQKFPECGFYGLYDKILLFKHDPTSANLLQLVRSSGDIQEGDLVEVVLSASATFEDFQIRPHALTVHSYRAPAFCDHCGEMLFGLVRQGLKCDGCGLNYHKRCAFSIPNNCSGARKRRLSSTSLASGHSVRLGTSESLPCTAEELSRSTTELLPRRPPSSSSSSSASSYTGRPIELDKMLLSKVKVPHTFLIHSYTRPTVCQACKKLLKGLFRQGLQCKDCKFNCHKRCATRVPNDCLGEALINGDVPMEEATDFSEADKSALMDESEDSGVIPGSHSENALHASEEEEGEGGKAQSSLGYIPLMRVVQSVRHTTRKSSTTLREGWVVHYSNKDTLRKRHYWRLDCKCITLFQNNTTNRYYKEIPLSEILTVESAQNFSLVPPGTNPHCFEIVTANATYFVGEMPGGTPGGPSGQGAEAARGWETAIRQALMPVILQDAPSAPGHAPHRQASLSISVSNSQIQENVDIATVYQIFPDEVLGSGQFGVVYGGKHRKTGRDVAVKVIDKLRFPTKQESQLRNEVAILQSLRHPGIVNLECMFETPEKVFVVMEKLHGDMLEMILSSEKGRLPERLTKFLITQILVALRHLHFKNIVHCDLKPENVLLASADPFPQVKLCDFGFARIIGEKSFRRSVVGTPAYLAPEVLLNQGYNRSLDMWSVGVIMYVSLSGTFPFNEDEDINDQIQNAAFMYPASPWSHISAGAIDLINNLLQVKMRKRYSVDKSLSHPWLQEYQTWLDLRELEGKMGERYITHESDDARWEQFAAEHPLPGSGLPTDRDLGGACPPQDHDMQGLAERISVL"}, "[4]": {"target": "T5, RSK4(Kin.Dom.2-C-terminal) (Homo sapiens, UniProt Q9UK32)", "T5 construct": "gene RPS6KA6; Kin.Dom.2-C-terminal"}}, "data": [{"smiles": "c1ccc2c(c1)Sc1ccccc1N2CCN1CCOCC1", "note": "[J54]", "values": [{"measurement": "remaining binding", "setting": "[1]", "value": 79, "unit": "%"}, {"measurement": "remaining binding", "setting": "ASK2", "value": 100, "unit": "%"}, {"measurement": "remaining binding", "setting": "CDKL3", "value": 100, "unit": "%"}, {"measurement": "remaining binding", "setting": "CSF1R", "value": 100, "unit": "%"}, {"measurement": "remaining binding", "setting": "EGFR(L858R)", "value": 92, "unit": "%"}, {"measurement": "remaining binding", "setting": "HUNK", "value": 58, "unit": "%"}, {"measurement": "remaining binding", "setting": "IRAK3", "value": 90, "unit": "%"}, {"measurement": "remaining binding", "setting": "[2]", "value": 99, "unit": "%"}, {"measurement": "remaining binding", "setting": "[3]", "value": 85, "unit": "%"}, {"measurement": "remaining binding", "setting": "MAP3K4", "value": 97, "unit": "%"}, {"measurement": "remaining binding", "setting": "PRKD2", "value": 95, "unit": "%"}, {"measurement": "remaining binding", "setting": "[4]", "value": 99, "unit": "%"}]}]}
